Source: patent US5661136A, “2-halo-2'-fluoro ARA adenosines as antinoplastic agents” (priority 1994, dated 1997)

How the values were obtained:
[1] = target: T1, ribonucleotide reductase (Homo sapiens, UniProt P23921); details: cited from earlier work; for inhibition of ribonucleotide reductase (in words): 5'-triphosphate of the nucleoside analogue
T1 sequence (P23921 1-792): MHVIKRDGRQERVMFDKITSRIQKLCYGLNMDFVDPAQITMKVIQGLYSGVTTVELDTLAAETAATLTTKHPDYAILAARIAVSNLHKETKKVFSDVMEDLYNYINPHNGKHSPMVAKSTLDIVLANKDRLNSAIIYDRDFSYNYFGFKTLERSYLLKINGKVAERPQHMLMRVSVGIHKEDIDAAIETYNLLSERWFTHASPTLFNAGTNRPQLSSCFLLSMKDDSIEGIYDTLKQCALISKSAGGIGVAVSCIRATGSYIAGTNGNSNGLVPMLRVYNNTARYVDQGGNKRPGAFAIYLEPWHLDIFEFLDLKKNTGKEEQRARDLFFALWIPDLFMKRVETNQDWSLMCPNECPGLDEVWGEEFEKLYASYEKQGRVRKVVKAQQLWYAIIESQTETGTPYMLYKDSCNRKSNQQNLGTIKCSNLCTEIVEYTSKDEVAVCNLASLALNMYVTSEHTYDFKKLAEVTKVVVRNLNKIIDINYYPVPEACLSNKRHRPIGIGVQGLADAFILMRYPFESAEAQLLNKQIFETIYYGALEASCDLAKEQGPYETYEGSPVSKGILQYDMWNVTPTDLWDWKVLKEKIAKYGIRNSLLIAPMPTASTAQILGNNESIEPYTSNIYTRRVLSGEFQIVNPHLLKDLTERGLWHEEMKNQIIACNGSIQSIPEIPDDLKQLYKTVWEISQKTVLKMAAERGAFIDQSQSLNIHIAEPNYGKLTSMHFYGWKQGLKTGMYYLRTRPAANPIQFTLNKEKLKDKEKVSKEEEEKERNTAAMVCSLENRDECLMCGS

[2] = system: L1210; test: Cytotoxicity, inhibition of cell proliferation to 50% of untreated controls; format: cell-based; details: Mus musculus; L1210 murine leukemia line; read-out: Cytotoxicity as IC50, L1210
Text: (§1) In contrast to the previously reported 2'-substituted 9-β-D-arabinofuranosyl-2-haloadenines, the 2'-fluoro compounds were quite cytotoxic to three human cell lines, H.Ep.-2, CCRF-CEM, and K562, and the murine lukemia line, L1210.
(§2) Obviously, to be useful as anticancer agents, the nucleosides of the present invention must show the ability to kill cells in vitro. […] One cell line (L1210) is a murine lukemia, whereas the other three are human neoplasms. […] Many people today emphasize the importance of toxicity to human cell lines.

[3] = system: H.Ep.-2; test: as above; format: cell-based, human; details: HEp-2; H.Ep.-2 human cell line; read-out: Cytotoxicity as IC50, H.Ep.-2
Text: as §1, §2

[4] = system: CCRF-CEM; test: as above; format: cell-based, human; details: CCRF-CEM human cell line; read-out: Cytotoxicity as IC50, CCRF-CEM
Text: as §1, §2

[5] = target: E. coli purine nucleoside phosphorylase (Escherichia coli, UniProt P0ABP8); test: Phosphorolysis of nucleosides by purine nucleoside phosphorylase; format: biochemical; details: 0.5 mM nucleoside, 50 mM pH 8.0 phosphate buffer, HPLC, incubation 30-240 min, read-out: % Cleavage
Text: Subsequently, the phosphorolysis of these compounds were compared by E. coli purine nucleoside phosphorylase. The […] and 2'-deoxyribonucleosides are rapidly cleaved by this enzyme, whereas the […] nucleosides substituted at 2' by Cl, N3, or NH2 are almost completely resistant. The 2'-fluoro compounds are less resistant to cleavage, being cleaved at roughly one-third the rate of the […] and 2'-deoxynucleosides. This reduction in cleavage rate may be acceptable for pharmaceutical purposes as phosphorylation in mammalian cells is quite rapid.
More specifically, an enzyme reaction mixture consisting of 0.5 mM nucleoside substrate, 50 mM pH 8.0 phosphate buffer and purine nucleoside phosphorylase in a final volume of 1.0 mL was allowed to incubate for 30, 60, 120, 180 and 240 minutes, and the amounts of nucleoside and substrate remaining were determined by HPLC.

Chain of E. coli purine nucleoside phosphorylase (P0ABP8 2-239): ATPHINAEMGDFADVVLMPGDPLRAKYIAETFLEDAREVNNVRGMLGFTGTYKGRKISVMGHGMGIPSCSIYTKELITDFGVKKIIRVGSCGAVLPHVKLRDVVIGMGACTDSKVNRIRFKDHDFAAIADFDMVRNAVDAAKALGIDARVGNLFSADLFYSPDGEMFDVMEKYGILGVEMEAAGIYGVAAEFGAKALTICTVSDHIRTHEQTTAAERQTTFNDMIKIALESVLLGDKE

Row | Structure (SMILES) | inhibition of ribonucleotide reductase (in words) [1] | concentration inhibiting ribonucleotide reductase relative to 2-chloro-9-(2-deoxy-2-fluoro-β-D-arabinofuranosyl)adenine 5' triphosphate ([1]; ratio of concentrations required) [fold] | IC50 [2] [nM] | IC50 [3] [nM] | IC50 [4] [nM] | metabolised at 500 µM [5] [%]
1 | Nc1nc(Cl)nc2c1ncn2[C@@H]1O[C@H](COP(=O)(O)OP(=O)(O)OP(=O)(O)O)[C@@H](O)[C@@H]1F [2-chloro-9-(2-deoxy-2-fluoro-β-D-arabinofuranosyl)adenine 5'triphosphate] | the same as that seen with 2-chloro-2'-deoxyadenosine 5'-triphosphate |  |  |  |  | 
2 | Nc1nc(F)nc2c1ncn2[C@@H]1O[C@H](COP(=O)(O)OP(=O)(O)OP(=O)(O)O)[C@@H](O)[C@@H]1O [9-β-D-arabinofuranosyl-2-fluoroadenine 5'triphosphate] | much less potent inhibitor | 10 |  |  |  | 
3 | Nc1nc(Br)nc2c1ncn2[C@H]1C[C@H](O)[C@@H](CO)O1 [Y = Br, X = H] |  |  | 900 | 20 | 20 | 
4 | Nc1nc(Br)nc2c1ncn2[C@@H]1O[C@H](CO)[C@@H](O)[C@@H]1O [Y = Br, X = OH] |  |  | 3000 | 4000 |  | 
5 | Nc1nc(Cl)nc2c1ncn2[C@H]1C[C@H](O)[C@@H](CO)O1 [Y = Cl, X = H, 2-chloro-2'-deoxyadenosine] |  |  | 70 | 30 | 3 | > 99
